The experiment addresses PARP7 (Homo sapiens (Human), UniProt Q7Z3E1). The experiment in a line: Enzymatic assay for inhibition of PARP7: TR-FRET displacement of biotinylated Probe A from the TIPARP active site. The class given is binding. As to conditions: Table A-1. In outline: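 Read-out: 665/615 nm emission ratio (ex 320 nm, 90 μs delay) indexing bound TIPARP–Probe A. Final incubation 30 min, 25° C; compounds in dose response. Curve fit of % inhibition vs concentration; Hill slope floating or fixed at 1 (3-parameter).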
(In general: Time-resolved FRET reads energy transfer from a long-lived donor to a nearby acceptor.)

Sequence of PARP7 (Q7Z3E1 whole entry): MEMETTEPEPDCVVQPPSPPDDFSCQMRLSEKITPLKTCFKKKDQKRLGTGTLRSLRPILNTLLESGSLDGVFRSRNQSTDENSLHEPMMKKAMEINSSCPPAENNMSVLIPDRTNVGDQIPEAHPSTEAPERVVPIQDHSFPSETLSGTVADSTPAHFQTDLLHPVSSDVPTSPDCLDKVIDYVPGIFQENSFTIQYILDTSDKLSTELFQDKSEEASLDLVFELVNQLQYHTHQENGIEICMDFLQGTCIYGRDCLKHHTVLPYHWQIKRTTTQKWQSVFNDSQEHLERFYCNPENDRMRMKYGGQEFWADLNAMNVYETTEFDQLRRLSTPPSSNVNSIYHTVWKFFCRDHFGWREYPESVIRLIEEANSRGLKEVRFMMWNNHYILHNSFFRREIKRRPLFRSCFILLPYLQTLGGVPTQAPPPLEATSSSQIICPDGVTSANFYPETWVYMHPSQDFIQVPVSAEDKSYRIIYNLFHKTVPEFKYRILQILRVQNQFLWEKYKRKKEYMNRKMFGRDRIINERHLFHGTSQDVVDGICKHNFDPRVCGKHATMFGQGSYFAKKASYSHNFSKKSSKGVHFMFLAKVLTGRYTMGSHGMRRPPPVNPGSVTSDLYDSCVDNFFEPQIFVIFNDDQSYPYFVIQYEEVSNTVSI

The term IC50 denotes the concentration needed to halve the response being measured. A higher IC50 goes with weaker potency. As to `CN(CCC(=O)N1CCN(c2ccc(C#N)cn2)CC1)C[C@@H]1CCCN1c1cn[nH]c(=O)c1C(F)(F)F` [Example 136, (S)-6-(4-(3-(methyl((1-(6-oxo-5-(trifluoromethyl)-1,6-dihydropyridazin-4-yl)pyrrolidin-2-yl)methyl)amino)propanoyl)piperazin-1-yl)nicotinonitrile], the half-maximal inhibitory concentration (IC50) was < 100 nM.
With `N#Cc1ccc(N2CCN(C(=O)CCOC[C@@H]3c4ncccc4CN3c3cn[nH]c(=O)c3C(F)(F)F)CC2)nc1` [Example 137A, 6-[4-(3-[[(7S)-6-[6-oxo-5-(trifluoromethyl)-1,6-dihydropyridazin-4-yl]-5H,6H,7H-pyrrolo[3,4-b]pyridin-7-yl]methoxy]propanoyl)piperazin-1-yl]pyridine-3-carbonitrile], the IC50 was < 100 nM.
For `N#Cc1ccc(N2CCN(C(=O)CCOC[C@H]3c4ncccc4CN3c3cn[nH]c(=O)c3C(F)(F)F)CC2)nc1` [Example 137B, 6-[4-(3-[[(7R)-6-[6-oxo-5-(trifluoromethyl)-1,6-dihydropyridazin-4-yl]-5H,6H,7H-pyrrolo[3,4-b]pyridin-7-yl]methoxy]propanoyl)piperazin-1-yl]pyridine-3-carbonitrile], the IC50 is < 100 nM.
As for `CN(C[C@@H]1CCCN1c1cn[nH]c(=O)c1C(F)(F)F)C(=O)CCN1CCN(c2ccc(C#N)cn2)CC1` [Example 138, 3-[4-(5-cyanopyridin-2-yl)piperazin-1-yl]-N-methyl-N-[[(2S)-1-[6-oxo-5-(trifluoromethyl)-1,6-dihydropyridazin-4-yl]pyrrolidin-2-yl]methyl]propanamide], the 50% inhibitory concentration (IC50) was ≥ 1000 nM.
As for `COCC1C[C@@H](COCCC(=O)N2CCN(c3ccc(C#N)cn3)CC2)N(c2cn[nH]c(=O)c2C(F)(F)F)C1` (stereo partly drawn) [Example 139, 6-[4-(3-[[(2S)-4-(methoxymethyl)-1-[6-oxo-5-(trifluoromethyl)-1,6-dihydropyridazin-4-yl]pyrrolidin-2-yl]methoxy]propanoyl)piperazin-1-yl]pyridine-3-carbonitrile], the figure is < 100 nM; as for `C[C@@H](OCCC(=O)N1CCN(c2ccc(C#N)cn2)CC1)[C@@H]1CCCN1c1cn[nH]c(=O)c1C(F)(F)F` [Example 140A, 6-(4-[3-[(1R)-1-[(2S)-1-[6-oxo-5-(trifluoromethyl)-1,6-dihydropyridazin-4-yl]pyrrolidin-2-yl]ethoxy]propanoyl]piperazin-1-yl)pyridine-3-carbonitrile], < 100 nM; as for `C[C@H](OCCC(=O)N1CCN(c2ccc(C#N)cn2)CC1)[C@@H]1CCCN1c1cn[nH]c(=O)c1C(F)(F)F` [Example 140B, 6-(4-[3-[(1S)-1-[(2S)-1-[6-oxo-5-(trifluoromethyl)-1,6-dihydropyridazin-4-yl]pyrrolidin-2-yl]ethoxy]propanoyl]piperazin-1-yl)pyridine-3-carbonitrile], 100 to 1000 nM.
As for `N#Cc1ccc(N2CCN(C(=O)C[C@@H]3CC[C@@H]([C@@H]4CCCN4c4cn[nH]c(=O)c4C(F)(F)F)O3)CC2)nc1` [Example 141A, 6-(4-[2-[(2S,5S)-5-[(2S)-1-[6-oxo-5-(trifluoromethyl)-1,6-dihydropyridazin-4-yl]pyrrolidin-2-yl]oxolan-2-yl]acetyl]piperazin-1-yl)pyridine-3-carbonitrile], the figure is < 100 nM.
As for `N#Cc1ccc(N2CCN(C(=O)C[C@@H]3CC[C@H]([C@@H]4CCCN4c4cn[nH]c(=O)c4C(F)(F)F)O3)CC2)nc1` [Example 141C, 6-(4-[2-[(2S,5R)-5-[(2S)-1-[6-oxo-5-(trifluoromethyl)-1,6-dihydropyridazin-4-yl]pyrrolidin-2-yl]oxolan-2-yl]acetyl]piperazin-1-yl)pyridine-3-carbonitrile], the figure is 100 to 1000 nM; as for `N#Cc1ccc(N2CCN(C(=O)C[C@H]3CC[C@H]([C@@H]4CCCN4c4cn[nH]c(=O)c4C(F)(F)F)O3)CC2)nc1` [Example 141D, 6-(4-[2-[(2R,5R)-5-[(2S)-1-[6-oxo-5-(trifluoromethyl)-1,6-dihydropyridazin-4-yl]pyrrolidin-2-yl]oxolan-2-yl]acetyl]piperazin-1-yl)pyridine-3-carbonitrile], 100 to 1000 nM.
Turning to `CC(=O)N1CCC[C@@H]2CN(c3cn[nH]c(=O)c3C(F)(F)F)C[C@@H]21` [Example 142, 5-[(4aR,7aR)-1-acetyl-octahydro-1H-pyrrolo[3,4-b]pyridin-6-yl]-4-(trifluoromethyl)-2,3-dihydropyridazin-3-one], the half-inhibitory concentration (IC50) was ≥ 1000 nM.
Regarding `CC(=O)N1CCC[C@H]2CN(c3cn[nH]c(=O)c3C(F)(F)F)C[C@H]21` [Example 143, 5-[(4aS,7aS)-1-acetyl-octahydro-1H-pyrrolo[3,4-b]pyridin-6-yl]-4-(trifluoromethyl)-2,3-dihydropyridazin-3-one], the IC50 was ≥ 1000 nM.
Turning to `N#Cc1ccc(N2CCN(C(=O)CNCC[C@@H]3c4ccccc4CN3c3cn[nH]c(=O)c3C(F)(F)F)CC2)nc1` [Example 144A, 6-[4-[2-([2-[(1R)-2-[6-oxo-5-(trifluoromethyl)-1,6-dihydropyridazin-4-yl]-2,3-dihydro-1H-isoindol-1-yl]ethyl]amino)acetyl]piperazin-1-yl]pyridine-3-carbonitrile], the half-inhibitory concentration (IC50) is < 100 nM.
As for `N#Cc1ccc(N2CCN(C(=O)CNCC[C@H]3c4ccccc4CN3c3cn[nH]c(=O)c3C(F)(F)F)CC2)nc1` [Example 144B, 6-[4-[2-([2-[(1S)-2-[6-oxo-5-(trifluoromethyl)-1,6-dihydropyridazin-4-yl]-2,3-dihydro-1H-isoindol-1-yl]ethyl]amino)acetyl]piperazin-1-yl]pyridine-3-carbonitrile], the figure is 100 to 1000 nM.
As for `N#Cc1ccc(N2CCN(C(=O)C[C@@H](N)COC[C@@H]3CCCN3c3cn[nH]c(=O)c3C(F)(F)F)CC2)nc1` [Example 145A, 6-[4-[(3R)-3-amino-4-[[(2S)-1-[6-oxo-5-(trifluoromethyl)-1,6-dihydropyridazin-4-yl]pyrrolidin-2-yl]methoxy]butanoyl]piperazin-1-yl]pyridine-3-carbonitrile; formic acid], the figure is < 100 nM; as for `N#Cc1ccc(N2CCN(C(=O)C[C@H](N)COC[C@@H]3CCCN3c3cn[nH]c(=O)c3C(F)(F)F)CC2)nc1` [Example 145B, 6-[4-[(3S)-3-amino-4-[[(2S)-1-[6-oxo-5-(trifluoromethyl)-1,6-dihydropyridazin-4-yl]pyrrolidin-2-yl]methoxy]butanoyl]piperazin-1-yl]pyridine-3-carbonitrile; formic acid], < 100 nM; as for `N#Cc1ccc(N2CCN(C(=O)CCNC[C@@H]3c4ccccc4CN3c3cn[nH]c(=O)c3C(F)(F)F)CC2)nc1` [Example 146A, 6-[4-[3-([[(1S)-2-[6-oxo-5-(trifluoromethyl)-1,6-dihydropyridazin-4-yl]-2,3-dihydro-1H-isoindol-1-yl]methyl]amino)propanoyl]piperazin-1-yl]pyridine-3-carbonitrile], < 100 nM.
As for `N#Cc1ccc(N2CCN(C(=O)CCNC[C@H]3c4ccccc4CN3c3cn[nH]c(=O)c3C(F)(F)F)CC2)nc1` [Example 146B, 6-[4-[3-([[(1R)-2-[6-oxo-5-(trifluoromethyl)-1,6-dihydropyridazin-4-yl]-2,3-dihydro-1H-isoindo1-1-yl]methyl]amino)propanoyl]piperazin-1-yl]pyridine-3-carbonitrile], the figure is < 100 nM; as for `O=C(C[C@@H]1CC[C@@H]([C@@H]2CCCN2c2cn[nH]c(=O)c2C(F)(F)F)O1)N1CCN(c2ncc(Cl)cn2)CC1` [Example 147A, 5-[(2S)-2-[(2S,5S)-5-[2-[4-(5-chloropyrimidin-2-yl)piperazin-1-yl]-2-oxoethyl]oxolan-2-yl]pyrrolidin-1-yl]-4-(trifluoromethyl)-2,3-dihydropyridazin-3-one], < 100 nM.
Turning to `O=C(C[C@H]1CC[C@@H]([C@@H]2CCCN2c2cn[nH]c(=O)c2C(F)(F)F)O1)N1CCN(c2ncc(Cl)cn2)CC1` [Example 147B, 5-[(2S)-2-[(2S,5R)-5-[2-[4-(5-chloropyrimidin-2-yl)piperazin-1-yl]-2-oxoethyl]oxolan-2-yl]pyrrolidin-1-yl]-4-(trifluoromethyl)-2,3-dihydropyridazin-3-one], the IC50 was < 100 nM.
For the molecule `O=C(C[C@H]1CC[C@H]([C@@H]2CCCN2c2cn[nH]c(=O)c2C(F)(F)F)O1)N1CCN(c2ncc(Cl)cn2)CC1` [Example 147D, 5-[(2S)-2-[(2R,5R)-5-[2-[4-(5-chloropyrimidin-2-yl)piperazin-1-yl]-2-oxoethyl]oxolan-2-yl]pyrrolidin-1-yl]-4-(trifluoromethyl)-2,3-dihydropyridazin-3-one], the IC50 is < 100 nM.
As for `O=C(C[C@@H]1CC[C@@H]([C@@H]2CCCN2c2cn[nH]c(=O)c2C(F)(F)F)O1)N1CCN(c2ccc(Cl)cn2)CC1` [Example 148A, 5-[(2S)-2-[(2S,5S)-5-[2-[4-(5-chloropyridin-2-yl)piperazin-1-yl]-2-oxoethyl]oxolan-2-yl]pyrrolidin-1-yl]-4-(trifluoromethyl)-2,3-dihydropyridazin-3-one], the figure is < 100 nM; as for `O=C(C[C@@H]1CC[C@H]([C@@H]2CCCN2c2cn[nH]c(=O)c2C(F)(F)F)O1)N1CCN(c2ccc(Cl)cn2)CC1` [Example 148B, 5-[(2S)-2-[(2R,5S)-5-[2-[4-(5-chloropyridin-2-yl)piperazin-1-yl]-2-oxoethyl]oxolan-2-yl]pyrrolidin-1-yl]-4-(trifluoromethyl)-2,3-dihydropyridazin-3-one], 100 to 1000 nM; as for `O=C(C[C@H]1CC[C@H]([C@@H]2CCCN2c2cn[nH]c(=O)c2C(F)(F)F)O1)N1CCN(c2ccc(Cl)cn2)CC1` [Example 148C, 5-[(2S)-2-[(2R,5R)-5-[2-[4-(5-chloropyridin-2-yl)piperazin-1-yl]-2-oxoethyl]oxolan-2-yl]pyrrolidin-1-yl]-4-(trifluoromethyl)-2,3-dihydropyridazin-3-one], < 100 nM.

These data come from US10550105B2 (Ribon Therapeutics Inc., priority 2018, dated 2020).
